Data set [1] concerns the target T1, SPs0871 (Streptococcus pyogenes, UniProt A0A0H2UUQ6). Kind of data set: MST binding analysis. Particulars: for concentration-dependent response by MST: 15.3 nM to 500 µM compound; for concentration-dependent response by MST / Kd: 100 nM SPs0871; for Kd: read-out: KD values calculated by MST analysis. Here is the method:
(§1) MST was performed on a Monolith NT.115 instrument using Monolith NT.115 Series, Premium Capillaries, and His-tagged SPs0871 was labeled using the Monolith His-Tag Labeling Kit RED-Tris-NTA 2nd Generation (NanoTemper Technologies GmbH, Munich, Germany). The final concentration of SPs0871 was 100 nM, and the final concentration of the dye was 5 nM. The buffer was PBS-T (PBS, 0.005% Tween 20), 5% DMSO. A range of concentrations of compounds (15.3 nM to 500 µM) was tested.

For another data set, the system named is S. pyogenes strain JRS4. The data set is described as follows: Growth assay in CDM supplemented with maltotetraose, JRS4. In kind it is cell-based, Streptococcus pyogenes. The settings on record: for GAS growth: 0.5% maltotetraose, 1% DMSO, OD600. As for the experimental part:
(§2) Bacteria were incubated in a carbohydrate-free chemically defined medium (CDM) supplemented with maltotetraose, which is thought to be taken up only via the SPs0871 pathway. […] Further, we also evaluated the antibacterial effect of 95,186 against SSI-1 strain, which is isolated from a STSS patient.
(§3) JRS4 and SSI-1 were used as GAS strains. The medium used as well as the procedure up to the assay were the same as previously described. […] For SSI-1, an additional 0.1% glucose was added to the CDM medium containing maltotetraose. To confirm the bacteriostatic effect of compound 95,186, the bacterial culture incubated in CDM was inoculated into THY medium to achieve a final OD600 value of 0.01.

The target in data set [2] is T1, SPs0871. Kind of data set: SPR analysis of binding to immobilized SPs0871 (Biacore T200). Particulars: for concentration-dependent response by SPR (derivatives, cross-validation): 3.125–200 µM. Here is the method: The binding of maltotriose and compound derivatives to SPs0871 was assessed using a Biacore T200 instrument (Cytiva, Marlborough, MA, USA). SPs0871 was immobilized at 4300–4700 RU on the surface of a CM5 sensor chip (Cytiva) by the amine-coupling method according to the manufacturer’s instructions. The running buffer was phosphate buffered saline with Tween (PBS, 0.005% Tween 20), 5% DMSO. To measure the interaction of maltotriose with SPs0871, a range of concentrations of maltotriose (0.039–20 µM) were injected at a flow rate of 30 μL min^–1 with a 20 s association time and a 40 s dissociation time. To measure the interaction of compound derivatives with SPs0871, a range of concentrations of compound derivatives (3.125–200 µM) were injected at a flow rate of 30 μL min^–1 with a 20 s association time and a 40 s dissociation time. Data analysis was carried out using BIAevaluation software (Cytiva, version ver3.2.1, https://www.cytivalifesciences.com/ja/jp/support/software/biacore-downloads?_gl=1*18vz87l*_gcl_au*MjA3MjI1ODE4Ni4xNzQyOTU1NzY3*_ga*OTQ5NDM5MTMyLjE3NDI5NTU3Njg.*_ga_CS9H0CZBWW*MTc0NDQ0NjkwMy41LjEuMTc0NDQ0ODAwNC4wLjAuMA.). The KDs of the interactions were calculated from Scatchard plots.

Another data set has as its system MalE1. The data set is described as follows: MST analysis of bacterial species specificity. In kind it is binding, L. casei.
Text: Finally, to gain an insight into the specificity of the three compounds for bacterial species, we prepared MalE1 from L. casei as a recombinant protein and used MST to assess the binding of compounds 95,186, 95186b, and 95186c to MalE1.
(§4) The SPs0871 (including mutants) gene fragment encoding amino acids 27–415 was cloned into Escherichia coli expression vector pCold I (for MST) or pCold SUMO, in which the His6-SUMO-tag was introduced into the pCold I vector (Takara, Shiga, Japan). The same process was performed for MalE1 derived from the L. casei gene fragment encoding amino acids 28–410. The recombinant protein was expressed and purified as previously described.
as §1

Data set [3] has as its target T1, SPs0871. The data set is described as follows: SPR screening of direct binding to SPs0871 (Biacore 8K). An excerpt:
In parallel, we conducted SPR screening to evaluate the direct binding of compounds to SPs0871. We immobilized SPs0871 on a sensor chip, flowed each compound to the chip in sequence, and evaluated the response for each compound. The response derived from maltotriose binding was designated as the positive control, with a relative value 100, and the response derived from the injection of running buffer was designated as the negative control, with a relative value 0. The molecular weight corrected value for each compound was used as the activity value.
Direct binding of compounds to SPs0871 was examined using a Biacore 8 K instrument (Cytiva). SPs0871 was immobilized at 3500–5300 RU on the surface of a CM5 sensor chip (Cytiva) by the amine-coupling method according to the manufacturer’s instructions. The running buffer was PBS-T (PBS, 0.005% Tween 20), 5% DMSO. In the screening, the final concentration of each compound was 100 µM, and samples were injected at a flow rate of 30 μL min^–1 with a 30 s association time. To check the concentration dependency, a range of concentrations of the compounds (3.125–50 µM) were injected at a flow rate of 30 μL min^–1 with a 20 s association time and a 30 s dissociation time. […]

The subject of data set [4] is SPs0871 mutants (E146, K294, W256 mutated to alanine). Kind of data set: MST binding to recombinant SPs0871 alanine mutants. The arrangement: species or system Streptococcus pyogenes.
Text: To assess whether 95,186 competes with the natural ligand maltotriose in binding to SPs0871, we conducted MST analysis in the presence or absence of maltotriose. […] When we performed additional docking calculations using the Glide docking program (Schrodinger, New York, NY, USA) to identify hotspot residues for the compound binding, E146 and K294 were predicted to form hydrogen bonds and W256 was predicted to form van der Waals interactions during compound binding (Fig. 4B,C). We validated these predictions using recombinant SPs0871 mutants in which these residues were mutated to alanine.
as §4
MST was performed on a Monolith NT.115 instrument using Monolith NT.115 Series, Premium Capillaries, and His-tagged SPs0871 was labeled using the Monolith His-Tag Labeling Kit RED-Tris-NTA 2nd Generation (NanoTemper Technologies GmbH, Munich, Germany). The final concentration of SPs0871 was 100 nM, and the final concentration of the dye was 5 nM. […]

Data set [5] deals with T1, SPs0871. The data set is described as follows: DSF, melting temperature of SPs0871. In kind it is binding. The source says:
In the subsequent DSF screening, we measured the Tm value of SPs0871 in the presence of each compound. We also evaluated the structural stabilizing effect of each compound by binding it to SPs0871, which reflected the binding of the compound in the ligand binding pocket and the intramolecular interaction network. We included SPs0871 without small compounds as a negative control in each screening plate. The difference between the Tm value for each compound and the highest negative control Tm value in the same plate was used as the activity value for each compound.
DSF was performed on a CFX Connect Real-Time System (Bio-Rad, Hercules, CA, USA). The buffer was 1 × PBS, 5% DMSO except an experiment to assess the change of Tm value in a sugar concentration-dependent manner (Figure S1), in which DMSO was not added into the buffer. In the initial screening, the final concentration of the compounds was 100 µM and the concentration of SPs0871 was a 2 μM. One thousandth of the sample volume of SYPRO Orange Protein Gel Stain (5000 × concentrated in DMSO; Invitrogen, Waltham, MA, USA) was added, and samples containing 5 × SYPRO Orange were loaded onto 96-well PCR Plates (Bio-Rad) for measurement. The denaturation of protein was observed via fluorescence emitted from SYPRO Orange upon absorption to the exposed hydrophobic surface.

Another data set deals with SSI-1 strain. The data set is described as follows: Growth assay in CDM medium, SSI-1. The format is cell-based, Streptococcus pyogenes. Particulars: 100 µM compound, 0.5% maltotetraose plus 0.1% glucose. Here is the method:
as §2, §3

T1 sequence (A0A0H2UUQ6 entry or part of it): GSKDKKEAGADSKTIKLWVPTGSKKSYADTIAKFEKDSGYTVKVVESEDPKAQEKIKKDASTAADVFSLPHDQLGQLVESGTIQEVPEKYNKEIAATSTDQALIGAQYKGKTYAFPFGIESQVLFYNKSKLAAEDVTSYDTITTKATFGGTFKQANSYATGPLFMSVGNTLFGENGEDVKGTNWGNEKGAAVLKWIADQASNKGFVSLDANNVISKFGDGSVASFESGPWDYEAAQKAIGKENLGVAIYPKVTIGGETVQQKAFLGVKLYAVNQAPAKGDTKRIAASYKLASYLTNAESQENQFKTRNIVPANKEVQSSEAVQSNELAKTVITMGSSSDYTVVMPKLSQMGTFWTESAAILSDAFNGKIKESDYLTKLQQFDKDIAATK

Turning to `Cc1ccc(-c2nnc3c4ccccc4c(C)nn23)cc1NC(=O)CN1CCCCC1` [95186a], the “concentration-dependent response by MST” value on SPs0871 [1] is “no change”.

With `Cc1nn2c(-c3cccc(NC(=O)CN4CCOCC4)c3)nnc2c2ccccc12` [95186b], the GAS growth result with S. pyogenes strain JRS4 (100 µM compound) is recorded as “suppressed GAS growth”. For the same compound, at SPs0871 [1], the “concentration-dependent response by MST” value was “concentration-dependent response change” and the Kd is 67.1 µM. At SPs0871 [2], the “concentration-dependent response by SPR (derivatives, cross-validation)” value was “observed concentration-dependent responses”. In addition, the “concentration-dependent response changes by MST with MalE1” value (“concentration-dependent response changes” for short) with MalE1 is “No concentration-dependent response changes were detected”.

Regarding `CCC(=O)Nc1cccc(-c2nnc3c4ccccc4c(C)nn23)c1` [95186c], in the data set on S. pyogenes strain JRS4 (100 µM compound), the GAS growth entry is “suppressed GAS growth”. In addition, on SPs0871 [1], the “concentration-dependent response by MST” value is “concentration-dependent response change” and the Kd was 71.7 µM. At SPs0871 [2], the “concentration-dependent response by SPR (derivatives, cross-validation)” value is reported as “observed concentration-dependent responses”. The “concentration-dependent response changes” value with MalE1 was “No concentration-dependent response changes were detected”.

Consider `Cc1nn2c(-c3cccc(NC(=O)c4ccco4)c3)nnc2c2ccccc12` [95186d], for which, in the data set with S. pyogenes strain JRS4 (100 µM in CDM with maltotetraose), the “initial optical density at 600 nm (OD600) values” is reported as “high because of aggregation of the compounds in the medium as well as bacterial growth”. Also, at SPs0871 [1], the “concentration-dependent response by MST” value was “concentration-dependent response change”.

On to `Cc1nn2c(-c3cccc(NC(=O)c4ccccc4)c3)nnc2c2ccccc12` [95186e], for which the “concentration-dependent response by MST” value on SPs0871 [1] is “no change”.

Take `Cc1nn2c(-c3cccc(NC(=O)COc4ccccc4)c3)nnc2c2ccccc12` [95186f]: the “concentration-dependent response by MST” value on SPs0871 [1] was “no change”.

For `Cc1nn2c(-c3cccc(NC(=O)CSc4nc5ccccc5o4)c3)nnc2c2ccccc12` [95186g], on SPs0871 [1], the “concentration-dependent response by MST” value is listed as “no change”.

In the case of `O=C(CN1CCCCC1)Nc1cccc(C(=O)Nc2cccc(C(F)(F)F)c2)c1` [95186h], at SPs0871 [1], the “concentration-dependent response by MST” value is on record as “no change”.

Turning to `Cc1nn2c(-c3cccc(NC(=O)CN4CCCCC4)c3)nnc2c2ccccc12` [compound 95186], at SPs0871 [3] (100 µM compound, maltotriose response = 100, running buffer = 0, hit criterion ≥ 60), the “SPR activity value (molecular weight corrected relative response)” value was determined as 162. On SPs0871 [3] (3.125–50 µM, three independent experiments), the “concentration dependence of the binding by SPR” value is recorded as “concentration-dependent increase in response was reproducibly observed”. Also, in the data set on S. pyogenes strain JRS4 (100 µM compound), the “growth inhibition potential compared among compounds” value was “highest growth inhibition potential” and the GAS growth entry was “suppressed GAS growth”. Moreover, the “concentration dependence of growth suppression” value in the data set with S. pyogenes strain JRS4 (JRS4, maltotetraose medium) is given as “concentration dependent above the KD value concentration”. In addition, the “bactericidal or bacteriostatic effect” value in the data set with S. pyogenes strain JRS4 (JRS4 exposed to compound transferred into THY medium, final OD600 0.01) is reported as “bacteriostatic action”. Also, at SPs0871 [1], the “concentration-dependent response by MST” value is recorded as “showed a concentration-dependent response” and the Kd was 44.7 µM. Besides, at SPs0871 [1] (60 µM maltotriose), the “MST response in the presence of maltotriose (competition)” value is listed as “concentration-dependent response disappeared”. Moreover, the “MST response change upon binding to SPs0871 alanine mutants” value in data set [4] is recorded as “Only the W256A mutation attenuated the response change upon the binding”. The ΔTm at 100 µM at SPs0871 [5] (100 µM compound, 2 µM SPs0871, hit criterion > 0.4 °C, read-out: DSF activity value (Tm with compound minus highest negative control Tm in the same plate)) stood at 0.6 °C. Moreover, the “concentration-dependent response changes” value in the data set on MalE1 is given as “No concentration-dependent response changes were detected”. For the same compound, the “maltodextrin dependent growth of SSI-1” value with SSI-1 strain is given as “suppressed the maltodexitrin dependent growth of SSI-1”.

On to maltotriose [reference compound], for which the Kd is 6.2 µM at SPs0871 [1] and 0.61 µM at SPs0871 [2] (maltotriose 0.039–20 µM, calculated from Scatchard plots, read-out: dissociation constant (KD) by SPR). Besides, the “increase of the melting temperature of SPs0871” value on SPs0871 [5] (DSF, 10 µM maltotriose) was determined as 1.2 °C.

The values are drawn from article PMC12130509, “Development of a small compound that regulates the function of a maltodextrin-binding protein of Streptococcus pyogenes by multifaceted screenings” (Scientific Reports, 2025).
